Biological target: T1, farnesyl protein transferase (FPT) (Rattus norvegicus, UniProt Q02293+Q04631)
T1 construct: partially purified rat brain farnesyl protein transferase (FPT); from tissue; host or cells: rat brain
Test: FPT IC50 / FPT inhibition (inhibition of farnesyl protein transferase, in vitro enzyme assay)
Type: biochemical
Details: for IC50: Ras-CVLS farnesylation by partially purified rat brain FPT

T1 sequence (Q02293 whole entry, one chain of several): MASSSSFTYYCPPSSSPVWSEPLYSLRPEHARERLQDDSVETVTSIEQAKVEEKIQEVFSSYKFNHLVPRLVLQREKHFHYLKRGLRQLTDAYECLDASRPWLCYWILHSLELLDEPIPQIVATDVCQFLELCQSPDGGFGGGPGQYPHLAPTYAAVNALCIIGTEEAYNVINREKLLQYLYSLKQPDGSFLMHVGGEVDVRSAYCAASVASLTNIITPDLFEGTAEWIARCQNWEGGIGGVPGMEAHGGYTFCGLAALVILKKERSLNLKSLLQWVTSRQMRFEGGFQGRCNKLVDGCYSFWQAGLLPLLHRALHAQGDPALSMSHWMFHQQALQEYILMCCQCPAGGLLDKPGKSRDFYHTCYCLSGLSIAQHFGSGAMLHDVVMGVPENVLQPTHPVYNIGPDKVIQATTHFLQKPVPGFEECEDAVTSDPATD

inhibition at 1.1 µM (@ 1.1 μM) [%]	IC50 [nM]	Compound
9	–	O=C(NCCc1ccccn1)C1CCN(C2c3ccc(Cl)cc3CCc3cc(Br)cnc32)CC1 (stereo not drawn) [Example 6, 1-(3-Bromo-8-chloro-6,11-dihydro-5H-benzo[5,6]cyclohepta[1,2-b]pyridin-11-yl)-N-(2-pyridinylethyl)-4-piperidinecarboxamide]
–	210	O=C(NCc1cccnc1)C1CCCN(C2c3ccc(Cl)cc3CCc3cc(Br)cnc32)C1 (stereo not drawn) [Example 10, 1-(3-Bromo-8-chloro-6,11-dihydro-5H-benzo[5,6]cyclohepta[1,2-b]pyridin-11-yl)-N-(3-pyridinylmethyl)-3-piperidinecarboxamide]
–	1000	O=C(NCCCN1CCCC1=O)[C@@H]1CCCN(C2c3ncc(Br)cc3CCc3cc(Cl)cc(Br)c32)C1 (stereo partly drawn) [Example 54, 1-(3,10-Dibromo-8-chloro-6,11-dihydro-5H-benzo[5,6]cyclohepta[1,2-b]pyridin-11-yl)-N-[3-(2-oxo-1-pyrrolidinyl)propyl]-3-piperidinecarboxamide]

Source: US5965570A, “Tricyclic piperidinyl compounds useful as inhibitors of farnesyl-protein transferase” (Schering Corporation, priority 1997, dated 1999)
